The record followed here is US6667387B1, “HCV core peptides” (priority 1992, dated 2003).

Common to all, as to format: binding, human
A short description of assay [1]: ELISA with seronegative / negative control sera (specificity). The method, then:
(§1) Where peptides were to be coated directly, stock solutions of the peptides were diluted in sodium carbonate buffer, pH 9.6 and used to coat polystyrene microtiter plates at a peptide concentration of 2 to 5 micrograms per milliliter for 1 hour at 37° C.
(§2) In cases where biotinylated peptides were to be evaluated, plates were first coated with streptavidin in sodium carbonate buffer, pH 9.6 at a concentration of 3 micrograms per milliliter for 1 hour at 37° C. The plates were then washed to remove excess, unbound protein. A working solution of the biotinylated peptide at 1 microgram per milliliter in sodium carbonate buffer was then added to the wells of the microtiter plate and incubated for 1 hours at 37° C.
(§3) Once the plates had been coated with antigen, any remaining free binding sites on the plastic were blocked with casein. After washing, a dilution of the appropriate antisera, usually 1:100, was added to the wells of the plates and incubated for 1 hour at 37° C.
(§4) After washing to remove unbound material, specific antibody binding was detected by incubating the plates with goat anti-human immunoglobulin antibodies conjugated to the enzyme horseradish peroxidase. Following removal of unbound conjugate by washing, a solution containing H2O2 and 3,3′,5,5′-tetramethylbenzidine was added.
(§5) Reactions were stopped after a suitable interval by addition of sulfuric acid. […] Absorbance measurements were made at a wavelength of 450 nanometers and all data are expressed as an optical density value at this wavelength.
(§6) Unbiotinylated HCV peptide I was coated directly onto the wells of a polystyrene ELISA plate at a concentration of 3 micrograms per milliliter in sodium carbonate buffer, pH 9.6. Biotinylated HCV peptide I was bound to streptavidin-coated wells using a stock solution containing the peptide at a concentration of 1 microgram per milliliter. The resulting plates were then incubated in parallel with a panel of sera from HCV-seropositive donors. […] Two of the sera (8326 and 8244) recognize the biotinylated version of this peptide far better than the unbiotinylated version. The specificity of the antibody reaction is also reflected by the low optical density values obtained for 5 serum samples from uninfected donors (F88, F89, F76, F136, and F6).
(§7) To determine how well biotinylated peptides would function in a mixture when bound to streptavidin- or avidin-coated plates, two mixtures were made of the N-terminally biotinylated versions of the HIV-1 peptides TM-HIV-1 (hereabove referred to as 1a.1) and V3-nm (hereabove referred to as 1b.4), the HIV-2 peptide TM-HIV-2 (hereabove referred to as 2a), and the hepatitis C virus peptides II, IX, and XVIII. Mixture A contained each of the six biotinylated peptides at a concentration of 1 microgram per milliliter (6 micrograms per milliliter peptide, total) while in mixture B, each peptide was present at a concentration of 0.1 microgram per milliliter (0.6 microgram per milliliter peptide, total). The individual peptides were coated at a concentration of 1 microgram per milliliter. For purposes of comparison, mixtures A and B were also coated directly onto the wells of a microtiter plate. Samples from HIV-1, HIV-2, and HCV-seropositive donors were tested and compared to sera from seronegative blood donors. A cut-off absorbance value of 0.250 was used to determine whether a reaction was positive or negative. Absorbance values equal or greater than 0.250 were considered positive while absorbance values below this value were considered negative.
A general note: An ELISA detects its analyte on a solid surface through an enzyme-linked reagent.

Assay [2] concerns antibodies in antisera from HIV-1 infected persons. In words: ELISA with HIV-1 antibody-positive sera (biotinylated peptides on streptavidin- or avidin-coated plates, unbiotinylated peptides coated directly). Particulars: for optical density (450 nm): Table 2; for number borderline / number negative / number positive / percent borderline / percent negative / percent positive: Table 16. As for the experimental part: as §1, §2, §3, §4, §5
Experiments were performed to evaluate antibody recognition of short, 10 amino acid-long, N-acetylated peptides corresponding to other contained within the transmembrane proteins of HIV-1 and HIV-2. […] The peptides used for the comparison were as follows:
Antibody binding to these peptides was compared to antibody binding to the unibiotinylated peptides which were coated directly onto microtiter plates.
In order to evaluate antibody recognition of these two peptides, the peptides were bound individually to streptavidin-coated microtiter plates and tested using a panel of antisera from HIV-1 seropositive donors.
as §7
A spacer consisting of two glycine residues was added to the amino terminus.

In assay [3] the test system is antibodies in sera from HCV-seropositive donors. In words: ELISA with HCV antibody-positive sera (biotinylated peptides on streptavidin- or avidin-coated plates, unbiotinylated peptides coated directly). Particulars: for optical density (450 nm): 20-fold dilution; for PEPTIDE ELISA (O.D.): Table 12, biotinylated 20-mers. As for the experimental part:
as §1, §2, §3, §4, §5
The unbiotinylated peptides were adsorbed onto the wells of polystyrene microtiter plates at a concentration of 3 micrograms per milliliter.
The biotinylated peptides were bound at a concentration of 1 microgram per milliliter to streptavidin-coated microtiter plates. Sera known to contain antibodies to these peptides were used for the evaluation and were tested at a 20-fold dilution.
To investigate further the enhanced antibody recognition of biotinylated HCV peptides bound to streptavidin or avidin as compared to direct adsorption on plastic, the influence of peptide coating concentration was investigated. Three peptides (HCV peptides II, XI, and XVI) were coated in concentrations ranging from 10 nanograms per milliliter to 3 micrograms per milliliter in a volume of 200 microliters per microtiter plate well. For direct coating, the unbiotinylated versions of these peptides were used. The biotinylated versions of these peptides were used to coat wells to which streptavidin had previously been adsorbed. Sera known to contain antibodies to these peptides were used at a dilution of 1 to 100 to evaluate the magnitude of antibody binding.
as §6
To determine how well biotinylated peptides would function in a mixture when bound to streptavidin- or avidin-coated plates, two mixtures were made of the N-terminally biotinylated versions of the HIV-1 peptides TM-HIV-1 (hereabove referred to as 1a.1) and V3-nm (hereabove referred to as 1b.4), the HIV-2 peptide TM-HIV-2 (hereabove referred to as 2a), and the hepatitis C virus peptides II, IX, and XVIII. […]

Ends that are not written are not given here.

Consider “Ac-Tyr-Asn-Lys-Arg-Lys-Arg-Ile-His-Ile-Gly-Pro-Gly-Arg-Ala-Phe-Tyr-Thr-Thr-Lys-Asn-Ile-Ile-Gly-NH2 (Ac-YNKRKRIHIGPGRAFYTTKNIIG-NH2) [Peptide V3-mn]”, for which the “optical density (450 nm)” value in assay [1] (Table 2, negative control) is listed as 0.063; in assay [2] (sample 266) it was 0.951; in assay [2] (sample 3990), 1.442; in assay [2] (sample 4436), 0.388; in assay [2] (sample 4438) it was 0.736; in assay [2] (sample DV) it was 1.314. The “optical density (450 nm)” value in assay [2] (sample MM) is 0.791; in assay [2] (sample OOST 4), 1.106; in assay [2] (sample OOST 6), 1.025; in assay [2] (sample OOST 8), 1 389; in assay [2] (sample PL) it was 0.531; in assay [2] (sample VE), 1.717. In assay [2] (sample YS), the “optical density (450 nm)” value is listed as 1.442.

As to “NNTRRGIHMGWGRTFYATGEIIG [Peptide V3-368, two glycine residues at the amino terminus, N-terminal glycine biotinylated]”, in assay [2] (African sera, 45 tested), the number borderline came out at 9, the number negative is 31, the number positive was 5 and the percent borderline is recorded as 20%. In assay [2] (African sera, 45 tested), this substance gave a percent negative of 69% and a percent positive of 11%. In assay [2] (Brazilian sera, 36 tested), this substance showed a number borderline of 15, a number negative of 5, a number positive of 16 and a percent borderline of 41.7%. Besides, in assay [2] (Brazilian sera, 36 tested), the percent negative is recorded as 13.9% and the percent positive amounted to 44.4%. In assay [2] (European sera, 36 tested), this substance showed a number borderline of 20, a number negative of 12, a number positive of 4 and a percent borderline of 56%. In assay [2] (European sera, 36 tested), the percent negative is listed as 33% and the percent positive turned out to be 11%.

In the case of SQHLPYIEQGMMLAEQFKQK, the “optical density (450 nm)” value in assay [3] (Table 4A, serum 2) amounted to 1.971; in assay [3] (Table 4A, serum 3), 2.086; in assay [3] (Table 4A, serum 4) it was 1.976; in assay [3] (Table 4A, serum 6), 0.518; in assay [3] (Table 4A, serum 8), 2.624; in assay [3] (Table 4A, serum 10), 2.321. In addition, the “optical density (450 nm)” value in assay [3] (Table 4A, serum 11) turned out to be 2.378; in assay [3] (Table 4A, serum 23) it was 2.503; in assay [3] (Table 4A, serum 31) it was 2.104; in assay [3] (Table 4A, serum 33), 1.857; in assay [3] (Table 4A, serum 49), 2.180; in assay [3] (Table 4A, serum 77), 0.159. The “optical density (450 nm)” value in assay [1] (Table 4A, negative serum) amounted to 0.095. Moreover, the “PEPTIDE ELISA (O.D.)” value in assay [3] (serum 0843) amounted to 2.268; in assay [3] (serum 8240), 0.182; in assay [3] (serum 8241) it was 2.280; in assay [3] (serum 8242) it was 1.625; in assay [3] (serum 8332), 0.575; in assay [3] (serum 8339), 0.043. Also, the “PEPTIDE ELISA (O.D.)” value in assay [3] (serum 8350) is given as 0.623; in assay [3] (serum 8377), 2.227; in assay [3] (serum 8378), 1.449; in assay [3] (serum 8388) it was 1.018. Besides, in assay [3] (serum 8241), the “antibody binding to the 20-mers” value is given as “very strong”.

With “Ser-Gln-His-Leu-Pro-Tyr-Ile-Glu-Gln-Gly-Met-Met-Leu-Ala-Glu-Gln-Phe-Lys-Gln-Lys [Biotinylated peptide XI] (SQHLPYIEQGMMLAEQFKQK; also: biotinylated) [probably the unbiotinylated peptide XI, acetylated at the amino terminus, coated directly]”, the “optical density (450 nm)” value in assay [3] (Table 4A, serum 2) stood at 0.090; in assay [3] (Table 4A, serum 3), 0.443; in assay [3] (Table 4A, serum 4), 0.473; in assay [3] (Table 4A, serum 6), 0.053; in assay [3] (Table 4A, serum 8), 1.275; in assay [3] (Table 4A, serum 10), 0.764. The “optical density (450 nm)” value in assay [3] (Table 4A, serum 11) came to 0.569; in assay [3] (Table 4A, serum 23), 0.775; in assay [3] (Table 4A, serum 31), 0.497; in assay [3] (Table 4A, serum 33), 0.832; in assay [3] (Table 4A, serum 49) it was 0.515; in assay [3] (Table 4A, serum 77) it was 0.093. The “optical density (450 nm)” value in assay [1] (Table 4A, negative serum) was determined as 0.053.

Turning to “TRKTSERSQPRGRRQPIPKV [listing 1 of 2 here]”, the “optical density (450 nm)” value in assay [3] (Table 4E, serum 8272) is 0.589; in assay [3] (Table 4E, serum 8273), 0.294; in assay [3] (Table 4E, serum 8274) it was 1.820; in assay [3] (Table 4E, serum 8275), 1.728; in assay [3] (Table 4E, serum 8276) it was 2.194; in assay [3] (Table 4E, serum 8277), 0.770. Further, the “optical density (450 nm)” value in assay [3] (Table 4E, serum 8278) came out at 1.391; in assay [3] (Table 4E, serum 8284) it was 0.040; in assay [1] (Table 4E, negative serum), 0.047.

Take “TRKTSERSQPRGRRQPIPKV [listing 2 of 2 here]”: the “optical density (450 nm)” value in assay [3] (Table 4E, serum 8272) is 1.220; in assay [3] (Table 4E, serum 8273) it was 1.026; in assay [3] (Table 4E, serum 8274), 2.662; in assay [3] (Table 4E, serum 8275), 1.724; in assay [3] (Table 4E, serum 8276), 2.616; in assay [3] (Table 4E, serum 8277) it was 1.796. For the same substance, the “optical density (450 nm)” value was 1.746 in assay [3] (Table 4E, serum 8278); 0.757 in assay [3] (Table 4E, serum 8284); 0.070 in assay [1] (Table 4E, negative serum). For the same substance, the “PEPTIDE ELISA (O.D.)” value in assay [3] (serum 0843) is reported as 1.378; in assay [3] (serum 8240), 2.021; in assay [3] (serum 8241), 0.274; in assay [3] (serum 8242), 2.315; in assay [3] (serum 8332), 1.455; in assay [3] (serum 8339), 2.598. Moreover, the “PEPTIDE ELISA (O.D.)” value in assay [3] (serum 8350) is on record as 0.685; in assay [3] (serum 8377), 0.076; in assay [3] (serum 8378), 1.228; in assay [3] (serum 8388), 2.162.
